Values after ≈ are worked out from the molar mass of the structure shown. Where two headings read alike, the source gives them in different places.
How the values were obtained:
[1] = test system: Phytophthora capsici (Pc); test: Growth inhibition assay of fungal pathogens, Pc; type: cell-based; details: 48 h, read-out: Concentration at 90% Inhibition Pc
In short: (§1)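 Spores diluted in 17% V8 liquid media and incubated with compound at final 50, 10, 2 ppm or 2, 0.4, 0.08 ppm (2% DMSO). OD600 plus visual ratings at 24 and 48 hours, blank-subtracted; percent growth inhibition from 48 h readings relative to 2% DMSO control.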

human (hACC2) = human (hACC2) (Homo sapiens, UniProt O00763); test: In vitro ACC inhibition assay (ADP-Glo), hACC2; type: biochemical; details: 5 nM ACC2, 20 μM ATP, 20 μM acetyl-CoA
Method: The detailed procedure is as follows. […] 10 μL ADP glo reagent was added. […] 20 μL kinase detection reagent was added.

Diplodia maydis (Dm) = test: Growth inhibition assay of fungal pathogens, Dm; type: cell-based; details: Stenocarpella maydis, 48 h, Diplodia maydis, read-out: Concentration at 90% Inhibition Dm
In short: as §1

fungal (fACC2) = fungal (fACC2) (UniProt Q00955); details: read-out: fACC2 (in vitro ACC2 Inhibition Assay, IC50), ADP-Glo, 5 nM ACC2, 20 μM ATP, 20 μM acetyl-CoA
Rhizoctonia solani (Rs) = test: Growth inhibition assay of fungal pathogens, Rs; type: cell-based; details: 48 h, mycelial plugs, read-out: Concentration at 90% Inhibition Rs
[2] = test system: Fusarium virguliforme (Fv); test: Growth inhibition assay of fungal pathogens, Fv; type: cell-based; details: 48 h, read-out: Concentration at 90% Inhibition Fv
In short: as §1

Septoria tritici (St) = test: Growth inhibition assay of fungal pathogens, St; type: cell-based; details: Zymoseptoria tritici, 48 h, Septoria tritici, read-out: Concentration at 90% Inhibition St
In short: as §1

[3] = test system: Collectotrichum graminicola (Cg); test: Growth inhibition assay of fungal pathogens, Cg; type: cell-based; details: 48 h, Collectotrichum graminicola, read-out: Concentration at 90% Inhibition Cg
In short: as §1

[4] = test system: Fusarium moniliforme (Fm); test: Growth inhibition assay of fungal pathogens, Fm; type: cell-based; details: Fusarium verticillioides, 48 h, Fusarium moniliforme, read-out: Concentration at 90% Inhibition Fm
In short: as §1

C. parapsilosis = test: Antifungal Activity Assay (broth microtiter MIC), C. parapsilosis; type: cell-based, Candida parapsilosis; details: Lodderomyces parapsilosis, ATCC22019, 48 h, ATCC 22019, 3 replicates, MIC recorded at 48 h, read-out: MIC, C. parapsilosis ATCC 22019
In short: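 MIC read by eye at 48 h, comparing challenged wells with the growth control. Yeasts grown overnight on Sabouraud dextrose agar at 35° C, suspended in RPMI 1640+MOPS and added at 2.5×10^3 CFU/mL final, following CLSI M27-A3.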

[5] = growth inhibition at 48 hours vs 2% DMSO control
[6] = growth inhibition vs 2% DMSO control at 48 hours

human (hACC2), sequence (O00763 whole entry): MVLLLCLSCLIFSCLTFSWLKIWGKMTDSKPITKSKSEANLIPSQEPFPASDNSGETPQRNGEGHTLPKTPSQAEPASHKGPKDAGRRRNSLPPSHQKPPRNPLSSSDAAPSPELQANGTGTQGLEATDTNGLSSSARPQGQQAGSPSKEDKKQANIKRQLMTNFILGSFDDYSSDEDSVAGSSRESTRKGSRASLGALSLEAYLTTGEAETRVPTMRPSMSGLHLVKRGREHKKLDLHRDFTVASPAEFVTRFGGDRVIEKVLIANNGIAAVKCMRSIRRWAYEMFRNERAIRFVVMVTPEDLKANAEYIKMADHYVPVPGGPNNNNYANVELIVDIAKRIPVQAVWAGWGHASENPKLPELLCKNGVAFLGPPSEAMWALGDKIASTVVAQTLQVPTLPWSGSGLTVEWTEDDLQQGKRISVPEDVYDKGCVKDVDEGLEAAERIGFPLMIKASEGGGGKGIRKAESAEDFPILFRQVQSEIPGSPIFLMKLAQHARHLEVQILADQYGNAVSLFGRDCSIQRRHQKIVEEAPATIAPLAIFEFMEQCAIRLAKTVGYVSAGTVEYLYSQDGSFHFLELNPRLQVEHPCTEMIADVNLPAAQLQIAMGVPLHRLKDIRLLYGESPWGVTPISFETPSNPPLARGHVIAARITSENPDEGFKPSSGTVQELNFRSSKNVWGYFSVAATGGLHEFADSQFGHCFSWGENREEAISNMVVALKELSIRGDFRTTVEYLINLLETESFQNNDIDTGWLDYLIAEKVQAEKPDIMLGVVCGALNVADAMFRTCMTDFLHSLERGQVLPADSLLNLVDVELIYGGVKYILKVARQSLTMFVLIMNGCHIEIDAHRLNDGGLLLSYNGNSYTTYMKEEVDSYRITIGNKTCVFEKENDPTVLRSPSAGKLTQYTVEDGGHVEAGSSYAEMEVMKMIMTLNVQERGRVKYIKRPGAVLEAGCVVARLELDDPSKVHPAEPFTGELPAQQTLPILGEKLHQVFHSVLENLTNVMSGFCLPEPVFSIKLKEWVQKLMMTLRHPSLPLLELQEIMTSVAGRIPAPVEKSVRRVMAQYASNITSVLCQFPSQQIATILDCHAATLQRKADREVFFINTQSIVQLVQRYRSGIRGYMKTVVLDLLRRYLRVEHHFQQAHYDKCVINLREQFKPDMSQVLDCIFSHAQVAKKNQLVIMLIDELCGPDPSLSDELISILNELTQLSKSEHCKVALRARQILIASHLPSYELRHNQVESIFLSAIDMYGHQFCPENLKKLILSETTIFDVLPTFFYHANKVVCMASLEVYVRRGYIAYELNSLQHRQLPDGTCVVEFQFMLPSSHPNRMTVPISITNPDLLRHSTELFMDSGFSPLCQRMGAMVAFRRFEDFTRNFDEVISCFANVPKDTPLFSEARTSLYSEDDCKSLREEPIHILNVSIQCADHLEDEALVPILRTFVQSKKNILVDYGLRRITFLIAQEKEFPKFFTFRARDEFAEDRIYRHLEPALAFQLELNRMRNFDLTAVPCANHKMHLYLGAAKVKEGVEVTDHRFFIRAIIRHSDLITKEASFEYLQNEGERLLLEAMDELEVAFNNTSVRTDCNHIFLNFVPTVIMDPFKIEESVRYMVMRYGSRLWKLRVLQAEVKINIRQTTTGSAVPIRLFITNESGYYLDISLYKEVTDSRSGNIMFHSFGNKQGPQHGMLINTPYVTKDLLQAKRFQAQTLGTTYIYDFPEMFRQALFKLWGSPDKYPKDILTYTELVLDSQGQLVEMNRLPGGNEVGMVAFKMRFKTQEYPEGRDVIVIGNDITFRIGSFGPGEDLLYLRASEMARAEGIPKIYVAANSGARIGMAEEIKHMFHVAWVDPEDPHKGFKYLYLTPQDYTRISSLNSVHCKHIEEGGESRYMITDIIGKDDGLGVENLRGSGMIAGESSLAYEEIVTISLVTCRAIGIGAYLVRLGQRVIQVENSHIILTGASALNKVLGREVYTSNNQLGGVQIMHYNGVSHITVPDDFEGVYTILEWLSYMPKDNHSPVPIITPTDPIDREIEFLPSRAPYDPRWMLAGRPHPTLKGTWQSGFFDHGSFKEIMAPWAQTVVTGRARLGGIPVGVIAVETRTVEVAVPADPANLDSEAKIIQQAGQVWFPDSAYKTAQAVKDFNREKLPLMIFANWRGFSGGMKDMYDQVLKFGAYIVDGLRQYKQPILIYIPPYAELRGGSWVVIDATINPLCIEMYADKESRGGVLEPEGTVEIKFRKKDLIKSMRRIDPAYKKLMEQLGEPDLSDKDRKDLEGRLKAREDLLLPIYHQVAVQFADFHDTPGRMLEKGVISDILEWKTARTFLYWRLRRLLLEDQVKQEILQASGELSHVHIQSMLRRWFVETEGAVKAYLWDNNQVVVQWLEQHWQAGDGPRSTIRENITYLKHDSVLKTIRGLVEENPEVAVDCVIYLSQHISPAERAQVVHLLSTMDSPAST
fungal (fACC2), sequence (Q00955 whole entry): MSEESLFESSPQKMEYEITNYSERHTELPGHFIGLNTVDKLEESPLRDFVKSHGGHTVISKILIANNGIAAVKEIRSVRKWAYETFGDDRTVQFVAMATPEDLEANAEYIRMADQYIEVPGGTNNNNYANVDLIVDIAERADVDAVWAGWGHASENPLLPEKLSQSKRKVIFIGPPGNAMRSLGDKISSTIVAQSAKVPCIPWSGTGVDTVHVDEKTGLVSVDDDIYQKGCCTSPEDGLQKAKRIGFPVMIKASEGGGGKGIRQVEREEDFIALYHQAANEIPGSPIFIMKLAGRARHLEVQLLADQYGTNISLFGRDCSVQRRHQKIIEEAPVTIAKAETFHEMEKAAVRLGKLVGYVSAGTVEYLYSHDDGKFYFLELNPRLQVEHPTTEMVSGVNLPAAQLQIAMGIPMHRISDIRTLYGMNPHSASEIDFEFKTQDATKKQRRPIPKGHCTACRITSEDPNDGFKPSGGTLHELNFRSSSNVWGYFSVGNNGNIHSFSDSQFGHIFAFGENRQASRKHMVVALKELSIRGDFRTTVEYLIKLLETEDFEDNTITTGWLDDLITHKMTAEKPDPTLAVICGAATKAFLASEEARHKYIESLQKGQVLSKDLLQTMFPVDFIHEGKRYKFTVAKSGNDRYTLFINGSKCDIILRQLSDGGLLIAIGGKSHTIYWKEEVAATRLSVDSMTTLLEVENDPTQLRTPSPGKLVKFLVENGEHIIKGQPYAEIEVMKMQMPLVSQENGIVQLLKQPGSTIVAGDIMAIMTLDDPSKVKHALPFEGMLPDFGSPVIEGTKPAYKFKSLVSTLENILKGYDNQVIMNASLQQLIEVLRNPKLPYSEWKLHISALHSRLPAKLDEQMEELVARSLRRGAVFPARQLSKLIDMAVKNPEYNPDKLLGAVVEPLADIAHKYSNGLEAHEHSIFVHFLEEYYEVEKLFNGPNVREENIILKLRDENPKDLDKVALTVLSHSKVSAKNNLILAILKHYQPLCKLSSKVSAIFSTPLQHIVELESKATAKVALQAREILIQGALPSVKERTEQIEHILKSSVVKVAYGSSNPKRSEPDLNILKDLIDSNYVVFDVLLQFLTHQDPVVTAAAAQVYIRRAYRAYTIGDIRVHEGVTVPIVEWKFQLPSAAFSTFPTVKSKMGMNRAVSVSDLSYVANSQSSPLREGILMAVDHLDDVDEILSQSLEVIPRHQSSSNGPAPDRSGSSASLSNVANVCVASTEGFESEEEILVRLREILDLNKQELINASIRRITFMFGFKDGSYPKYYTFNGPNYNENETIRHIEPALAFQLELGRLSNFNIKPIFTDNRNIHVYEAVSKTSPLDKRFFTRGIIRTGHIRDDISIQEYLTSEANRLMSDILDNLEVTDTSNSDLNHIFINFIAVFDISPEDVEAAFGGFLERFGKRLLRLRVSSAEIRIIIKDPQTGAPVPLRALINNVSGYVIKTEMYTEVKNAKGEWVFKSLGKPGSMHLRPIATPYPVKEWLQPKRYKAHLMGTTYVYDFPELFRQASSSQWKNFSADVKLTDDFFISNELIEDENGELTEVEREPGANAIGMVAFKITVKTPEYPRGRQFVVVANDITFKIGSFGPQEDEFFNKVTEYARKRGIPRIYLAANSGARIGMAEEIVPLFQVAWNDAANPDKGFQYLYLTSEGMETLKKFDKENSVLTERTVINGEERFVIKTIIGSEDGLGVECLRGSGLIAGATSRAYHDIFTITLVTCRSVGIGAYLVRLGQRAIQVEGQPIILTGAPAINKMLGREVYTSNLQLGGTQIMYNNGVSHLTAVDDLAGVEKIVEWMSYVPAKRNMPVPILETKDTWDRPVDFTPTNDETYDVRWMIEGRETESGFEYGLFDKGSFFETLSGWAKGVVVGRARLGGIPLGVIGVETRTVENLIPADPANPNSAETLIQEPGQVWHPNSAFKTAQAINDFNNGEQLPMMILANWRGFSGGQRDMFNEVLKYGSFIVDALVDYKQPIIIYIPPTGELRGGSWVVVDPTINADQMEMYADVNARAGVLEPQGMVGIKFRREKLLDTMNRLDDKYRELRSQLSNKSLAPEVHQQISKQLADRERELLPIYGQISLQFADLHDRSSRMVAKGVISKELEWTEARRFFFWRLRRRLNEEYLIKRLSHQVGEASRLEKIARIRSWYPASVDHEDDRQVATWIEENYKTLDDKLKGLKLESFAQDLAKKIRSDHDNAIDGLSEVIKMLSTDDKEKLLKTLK

Cc1c(-n2nccn2)sc2c1c(=O)n(C(C)(C)C(=O)NC(C)C)c(=O)n2C[C@H](OC(C)C)c1cc(F)ccc1OCCO [Compound I-53, (R)-2-(1-(2-(5-fluoro-2-(2-hydroxyethoxy)phenyl)-2-isopropoxyethyl)-5-methyl-2,4-dioxo-6-(2H-1,2,3-triazol-2-yl)-1,4-dihydrothieno[2,3-d]pyrimidin-3(2H)-yl)-N-isopropyl-2-methylpropanamide]
IC90 [1, 5]: > 50 µg/mL | IC90 [1, 6]: > 50 µg/mL | IC50 (human (hACC2); Table 2a): 10 to 40 nM | IC50 (human (hACC2); Table 2b, additional results): 10 to 40 nM | IC90 (Diplodia maydis (Dm); [5]): 0.4 µg/mL (≈ 0.649 µM) | IC90 (Diplodia maydis (Dm); [6]): 0.4 µg/mL (≈ 0.649 µM) | IC50 (fungal (fACC2); Table 2a): 1 to 5 nM | IC50 (fungal (fACC2); Table 2b, additional results): 1 to 5 nM | IC90 (Rhizoctonia solani (Rs); [5]): 0.08 µg/mL (≈ 0.13 µM) | IC90 (Rhizoctonia solani (Rs); [6]): 0.08 µg/mL (≈ 0.13 µM) | IC90 [2, 5]: 0.4 µg/mL (≈ 0.649 µM) | IC90 [2, 6]: 0.4 µg/mL (≈ 0.649 µM) | IC90 (Septoria tritici (St); [5]): > 50 µg/mL | IC90 (Septoria tritici (St); [6]): > 50 µg/mL | IC90 [3, 5]: 0.4 µg/mL (≈ 0.649 µM) | IC90 [3, 6]: 0.4 µg/mL (≈ 0.649 µM) | IC90 [4, 5]: 0.08 µg/mL (≈ 0.13 µM) | IC90 [4, 6]: 0.08 µg/mL (≈ 0.13 µM) | MIC (C. parapsilosis; Table 3a): 0.25 to 1 µg/mL (≈ 0.405 to 1.62 µM) | MIC (C. parapsilosis; Table 3b (additional results)): 1.01 to 2 µg/mL (≈ 1.64 to 3.24 µM)

COCCOc1ccc(F)cc1[C@H](Cn1c(=O)n(C(C)(C)C(=O)NC(C)C)c(=O)c2c(C)c(-n3nccn3)sc21)OC(C)C [Compound I-54, (R)-2-(1-(2-(5-fluoro-2-(2-methoxyethoxy)phenyl)-2-isopropoxyethyl)-5-methyl-2,4-dioxo-6-(2H-1,2,3-triazol-2-yl)-1,4-dihydrothieno[2,3-d]pyrimidin-3(2H)-yl)-N-isopropyl-2-methylpropanamide]
IC90 [1, 5]: > 50 µg/mL | IC90 [1, 6]: > 50 µg/mL | IC50 (human (hACC2); Table 2a): 10 to 40 nM | IC50 (human (hACC2); Table 2b, additional results): 10 to 40 nM | IC90 (Diplodia maydis (Dm); [5]): 0.08 µg/mL (≈ 0.127 µM) | IC90 (Diplodia maydis (Dm); [6]): 0.08 µg/mL (≈ 0.127 µM) | IC50 (fungal (fACC2); Table 2a): 1 to 5 nM | IC50 (fungal (fACC2); Table 2b, additional results): 1 to 5 nM | IC90 (Rhizoctonia solani (Rs); [5]): 0.4 µg/mL (≈ 0.634 µM) | IC90 (Rhizoctonia solani (Rs); [6]): 0.4 µg/mL (≈ 0.634 µM) | IC90 [2, 5]: 0.4 µg/mL (≈ 0.634 µM) | IC90 [2, 6]: 0.4 µg/mL (≈ 0.634 µM) | IC90 (Septoria tritici (St); [5]): > 50 µg/mL | IC90 (Septoria tritici (St); [6]): > 50 µg/mL | IC90 [3, 5]: 0.4 µg/mL (≈ 0.634 µM) | IC90 [3, 6]: 0.4 µg/mL (≈ 0.634 µM) | IC90 [4, 5]: 0.08 µg/mL (≈ 0.127 µM) | IC90 [4, 6]: 0.08 µg/mL (≈ 0.127 µM) | MIC (C. parapsilosis; Table 3a): 0.25 to 1 µg/mL (≈ 0.396 to 1.59 µM) | MIC (C. parapsilosis; Table 3b (additional results)): 1.01 to 2 µg/mL (≈ 1.6 to 3.17 µM)

Cc1c(-n2nccn2)sc2c1c(=O)n(C(C)(C)C(=O)NC(C)C)c(=O)n2C[C@H](OC(C)C)c1cc(F)ccc1OCC1COC1 [Compound I-55, (R)-2-(1-(2-(5-fluoro-2-(oxetan-3-ylmethoxy)phenyl)-2-isopropoxyethyl)-5-methyl-2,4-dioxo-6-(2H-1,2,3-triazol-2-yl)-1,4-dihydrothieno[2,3-d]pyrimidin-3(2H)-yl)-N-isopropyl-2-methylpropanamide]
IC90 [1, 5]: > 50 µg/mL | IC90 [1, 6]: > 50 µg/mL | IC50 (human (hACC2); Table 2a): 10 to 40 nM | IC50 (human (hACC2); Table 2b, additional results): 10 to 40 nM | IC90 (Diplodia maydis (Dm); [5]): 0.4 µg/mL (≈ 0.622 µM) | IC90 (Diplodia maydis (Dm); [6]): 0.4 µg/mL (≈ 0.622 µM) | IC50 (fungal (fACC2); Table 2a): 1 to 5 nM | IC50 (fungal (fACC2); Table 2b, additional results): 1 to 5 nM | IC90 (Rhizoctonia solani (Rs); [5]): 0.4 µg/mL (≈ 0.622 µM) | IC90 (Rhizoctonia solani (Rs); [6]): 0.4 µg/mL (≈ 0.622 µM) | IC90 [2, 5]: 0.4 µg/mL (≈ 0.622 µM) | IC90 [2, 6]: 0.4 µg/mL (≈ 0.622 µM) | IC90 (Septoria tritici (St); [5]): > 50 µg/mL | IC90 (Septoria tritici (St); [6]): > 50 µg/mL | IC90 [3, 5]: 0.4 µg/mL (≈ 0.622 µM) | IC90 [3, 6]: 0.4 µg/mL (≈ 0.622 µM) | IC90 [4, 5]: 0.08 µg/mL (≈ 0.124 µM) | IC90 [4, 6]: 0.08 µg/mL (≈ 0.124 µM) | MIC (C. parapsilosis; Table 3a): 0.25 to 1 µg/mL (≈ 0.389 to 1.56 µM) | MIC (C. parapsilosis; Table 3b (additional results)): 1.01 to 2 µg/mL (≈ 1.57 to 3.11 µM)
